US8323252B2, “Method of treating skin ulcers using oxidative reductive potential water solution” (priority 2005, dated 2012)
Where two headings read alike, the source gives them in different places.

How the values were obtained:
primary HDF cultures = conditions: human, 1 month, 5 μM
8-OHdG adducts in HDFs = conditions: human, 30 min, 500 μM
[1] = tested on: murine polychromatic erythrocytes; conditions: for PCE/NCE ratio: cyclophosphamide 8 mg/mL, 12.5 ml/kg i.p. on day 2
Protocol: The mammalian in vivo micronucleus test is used for the identification of substances which cause damage to chromosomes or the mitotic apparatus of murine polychromatic erythrocytes. This damage results in the formation of “micronuclei,” intracellular structures containing lagging chromosome fragments or isolated whole chromosomes. […] The positive control mice received a single intraperitoneal injection of cyclophosphamide (8 mg/mL, 12.5 ml/kg) on day 2. All mice were observed immediately after injection for any adverse reactions. […] On day 3, all mice were weighed and terminated.
The femurs were excised from the terminated mice, the bone marrow was extracted, and duplicate smear preparations were performed for each mouse. The bone marrow slides for each animal were read at 40× magnification. The ratio of polychromatic erythrocytes (PCE) to normochromatic erythrocytes (NCE), an index of bone marrow toxicity, was determined for each mouse by counting a total of at least 200 erythrocytes. Then a minimum of 2000 scoreable PCE per mouse were evaluated for the incidence of micronucleated polychromatic erythrocytes. Statistical analysis of the data were done using the Mann and Whitney test (at 5% risk threshold) from a statistical software package (Statview 5.0, SAS Institute Inc., USA).

Row | cells with increased SA-β-Gal expression (primary HDF cultures) [%] | increase of 8-OHdG adducts relative to control-treated or ORP water solution-treated cells (8-OHdG adducts in HDFs) | Compound | PCE/NCE ratio ([1]; females) | number of polychromatic erythrocytes bearing micronuclei ([1]; males, ORP water solution = Microcyn 10%, 12.5 ml/kg i.p.) | PCE/NCE ratio ([1]; males)
1 | 86 | about 25 fold | OO [HP, hydrogen peroxide] | – | – | –
2 | – | – | O=P1(N(CCCl)CCCl)NCCCO1 (centres unmarked) [cyclophosphamide] | 0.73 | 11.0 | 0.77
